Experimental data as given in PMC5011342, “A high throughput drug screening assay to identify compounds that promote oligodendrocyte differentiation using acutely dissociated and purified oligodendrocyte precursor cells” (BMC Research Notes, 2016).
Like-named read-outs stand apart in the source and are kept apart here. Blank lines part the entries; values can stand above or below the molecule they belong to.

Columns and labels:
[1] = test system: acutely dissociated and purified rat OPCs; experiment: Acute OL differentiation assay (MBP expression/cell, immunofluorescent image quantification); assay type: cell-based; conditions: sheet "All OLga data"; for activation at 0.08 µM / activation at 0.4 µM / activation at 2 µM / activation at 10 µM: Rattus norvegicus; for activation at 0.4 µM: 0.4 uM test compound, read-out: OL differentiation, 0.4 uM (% Quet)
Outline: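 This acute differentiation assay used purified rat OPCs from postnatal day 6–7 pups, seeded into PDL/laminin-coated 96-well plates in differentiation medium lacking PDGF and FGF. Compounds were applied in quadruplicate after a 1–2 h preincubation at 37 °C, 10 % CO2, with 0.1 % DMSO negative and 40 ng/ml T3 positive controls in eight wells. After fixation on DIV4, anti-MBP immunofluorescence images yielded MBP expression/cell.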

[2] = test system: expanded OPCs; experiment: cells; conditions: for viability at 0.1 µM / viability at 1 µM / viability at 10 µM: Rattus norvegicus, 72 h
Outline: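 Toxicity screen: compounds added at 0.1, 1 and 10 µM to PDGF-AA-expanded OPCs in 96-well plates, 3-day incubation at 37 °C, 10% CO2, then alamarBlue 1:10 for 4 h with fluorescence readout. Results set screening doses of 10/2, 2/0.4 or 0.4/0.08 µM.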

[3] = read-out: 0.1 µM (% DMSO), alamarBlue viability, NCC library compound at 0.1 µM, sheet "All Tox data"
[4] = read-out: 1 µM (% DMSO), alamarBlue viability, NCC library compound at 1 µM, sheet "All Tox data"
[5] = read-out: 10 µM (% DMSO), alamarBlue viability, NCC library compound at 10 µM, sheet "All Tox data"
[6] = test compound at 2 uM, NCC library screen, relative to quetiapine, read-out: 2 uM (% Quet)
[7] = test compound at 10 uM, NCC library screen, relative to quetiapine, read-out: 10 uM (% Quet)
[8] = alamarBlue viability of expanded OPCs, compound at 0.1 µM, relative to DMSO control
[9] = alamarBlue viability of expanded OPCs, compound at 1 µM, relative to DMSO control
[10] = alamarBlue viability of expanded OPCs, compound at 10 µM, relative to DMSO control
[11] = 2 uM test compound, relative to quetiapine, read-out: OL differentiation, 2 uM (% Quet)
[12] = 10 uM test compound, relative to quetiapine, read-out: OL differentiation, 10 uM (% Quet)
[13] = test compound at 2 uM, MBP expression relative to quetiapine, NCC library screen, read-out: 2 uM (% Quet)
[14] = test compound at 10 uM, MBP expression relative to quetiapine, NCC library screen, read-out: 10 uM (% Quet)

Structure (SMILES): CCC1=C[C@@H]2CN(C1)Cc1c([nH]c3ccccc13)[C@@](C(=O)OC)(c1cc3c(cc1OC)N(C)[C@H]1[C@@](O)(C(=O)OC)[C@H](OC(C)=O)[C@]4(CC)C=CCN5CC[C@]31[C@@H]54)C2 [Vinorelbine]
- activation at 0.08 µM ([1]; 0.08 uM test compound, relative to quetiapine, read-out: OL differentiation, 0.08 uM (% Quet)): -20.7%
- activation at 0.4 µM ([1]; relative to quetiapine): -107%
- viability at 0.1 µM [2, 3]: 56.8%
- viability at 1 µM [2, 4]: 34.4%
- viability at 10 µM [2, 5]: 11.1%

Structure (SMILES): c1ccc2c(c1)CCCC2C1=NCCN1 (stereo not shown) [Tyzine]
- activation at 2 µM [1, 6]: -6%
- activation at 10 µM [1, 7]: 0.3%
- 0.1 µM (% DMSO) [2, 8]: 181.2 % DMSO
- 1 µM (% DMSO) [2, 9]: 186.3 % DMSO
- 10 µM (% DMSO) [2, 10]: 187.5 % DMSO

Structure (SMILES): CC(=O)OCC(=O)NCCCOc1cccc(CN2CCCCC2)c1 [Roxatidine acetate]
- activation at 2 µM [1, 11]: -1.7%
- activation at 10 µM [1, 12]: 8.2%
- viability at 0.1 µM [2, 3]: 101%
- viability at 1 µM [2, 4]: 96%
- viability at 10 µM [2, 5]: 85.7%

Structure (SMILES): CO/N=C(\C(=O)N[C@@H]1C(=O)N2C(C(=O)O)=C(COC(C)=O)CS[C@H]12)c1csc(N)n1 [Cefotaxime]
- activation at 2 µM [1, 13]: 9.9%
- activation at 10 µM [1, 14]: 8.5%
- 0.1 µM (% DMSO) [2, 8]: 97.0 % DMSO
- 1 µM (% DMSO) [2, 9]: 88.3 % DMSO
- 10 µM (% DMSO) [2, 10]: 82.3 % DMSO

Structure (SMILES): COc1cc(Cc2cnc(N)nc2N)cc(OC)c1OC [Trimethoprim]
- activation at 2 µM [1, 6]: -30.5%
- activation at 10 µM [1, 7]: -40.8%
- 0.1 µM (% DMSO) [2, 8]: 93.8 % DMSO
- 1 µM (% DMSO) [2, 9]: 89.7 % DMSO
- 10 µM (% DMSO) [2, 10]: 86.5 % DMSO

Structure (SMILES): O=C1CCc2ccc(OCCCCN3CCN(c4cccc(Cl)c4Cl)CC3)cc2N1 [Aripiprazole]
- activation at 0.4 µM ([1]; relative to quetiapine): -30.6%
- activation at 2 µM [1, 11]: -18.8%
- viability at 0.1 µM ([2]; read-out: 0.1 µM (% DMSO), alamarBlue viability of expanded OPCs, compound at 0.1 µM, sheet All Tox data): 88.2%
- viability at 1 µM ([2]; read-out: 1 µM (% DMSO), alamarBlue viability of expanded OPCs, compound at 1 µM, sheet All Tox data): 86.5%
- viability at 10 µM ([2]; read-out: 10 µM (% DMSO), alamarBlue viability of expanded OPCs, compound at 10 µM, sheet All Tox data): 11.3%

Structure (SMILES): CCC(=O)NS(=O)(=O)c1ccc(-c2c(-c3ccccc3)noc2C)cc1 [Parecoxib]
- activation at 2 µM [1, 6]: -1.5%
- activation at 10 µM [1, 7]: -3%
- viability at 0.1 µM [2, 3]: 90.9%
- viability at 1 µM [2, 4]: 87.2%
- viability at 10 µM [2, 5]: 95.5%

Structure (SMILES): O=C(O)c1cc(=O)c2c(OCC(O)COc3cccc4oc(C(=O)O)cc(=O)c34)cccc2o1 [Cromolyn Sodium]
- activation at 2 µM [1, 13]: -3%
- activation at 10 µM [1, 14]: 3.7%
- 0.1 µM (% DMSO) [2, 8]: 93.1 % DMSO
- 1 µM (% DMSO) [2, 9]: 94.0 % DMSO
- 10 µM (% DMSO) [2, 10]: 85.3 % DMSO

Structure (SMILES): Cc1ncc([N+](=O)[O-])n1CC(O)CCl (stereo not shown) [Ornidazole]
- activation at 2 µM [1, 11]: 4.7%
- activation at 10 µM [1, 12]: 13%
- viability at 0.1 µM [2, 3]: 106%
- viability at 1 µM [2, 4]: 91.3%
- viability at 10 µM [2, 5]: 82.2%

- 0.1 µM (% DMSO) [2]: 96.6 % DMSO
- 1 µM (% DMSO) [2]: 89.8 % DMSO
- 10 µM (% DMSO) [2]: 87.4 % DMSO
Structure (SMILES): CC1=C(C/C=C(\C)CCC[C@H](C)CCC[C@H](C)CCCC(C)C)C(=O)c2ccccc2C1=O [Phylloquinone]
- 2 uM (% Quet) ([1]; test compound at 2 uM, NCC library screen, relative to quetiapine): 17.4 % Quet
- 10 uM (% Quet) ([1]; test compound at 10 uM, NCC library screen, relative to quetiapine): -25.4 % Quet

Structure (SMILES): COc1cc(C)c(/C=C/C(C)=C/C=C/C(C)=C/C(=O)O)c(C)c1C [Acitretin]
- activation at 2 µM [1, 13]: 68.7%
- activation at 10 µM [1, 14]: 51.4%
- 0.1 µM (% DMSO) [2, 8]: 101.2 % DMSO
- 1 µM (% DMSO) [2, 9]: 141.3 % DMSO
- 10 µM (% DMSO) [2, 10]: 148.0 % DMSO

Structure (SMILES): CN(C)CCC(c1ccc(Br)cc1)c1ccccn1 (stereo not shown) [Brompheniramine]
- activation at 0.4 µM ([1]; relative to quetiapine): -2%
- activation at 2 µM [1, 11]: 0.5%
- viability at 0.1 µM [2, 3]: 95.3%
- viability at 1 µM [2, 4]: 84.4%
- viability at 10 µM [2, 5]: 39.2%

Structure (SMILES): O=C(NCC1CCCCN1)c1cc(OCC(F)(F)F)ccc1OCC(F)(F)F (stereo not shown) [Flecainide]
- activation at 0.08 µM ([1]; test compound at 0.08 uM, MBP expression relative to quetiapine, NCC library screen, read-out: 0.08 uM (% Quet)): 2.3%
- 0.1 µM (% DMSO) [2, 8]: 64.1 % DMSO
- 1 µM (% DMSO) [2, 9]: 9.0 % DMSO
- 10 µM (% DMSO) [2, 10]: 7.7 % DMSO
